Measurements as given in paper PMC7419507, “In vitro Cas9-assisted editing of modular polyketide synthase genes to produce desired natural product derivatives” (Nature Communications, 2020).
Several values for one entry are separate records, joined by “and”; a condition that tells them apart may be missing. Equal values may be shown once.

How the values were obtained:
[1] = test system: T lymphoma Jurkat cells; assay: Cytotoxicity assay (CellTiter-Glo, 72 h), Jurkat; format: cell-based; conditions: raw data (replicates)
How it was run: (§1)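 Following 4 h attachment at 1000 cells/well, the three lines received serially halved compound doses (DMSO 0.5%) for 72 h at 37 °C under 5% CO2, with cell viability then determined by CellTiter-Glo.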

[2] = Cytotoxicity assay (CellTiter-Glo, 72 h), Jurkat; format: cell-based; conditions: human, Jurkat cells (T lymphoma); for viability at 72 h, 9.53674e-05 uM: conc 9.53674e-5 uM; for viability at 72 h, 9.53674e-05 uM / viability at 72 h, 0.000190735 uM / viability at 72 h, 0.00038147 uM / viability at 72 h, 0.000762939 uM / viability at 72 h, 0.00152588 uM / viability at 72 h, 0.00305176 uM / viability at 72 h, 0.00610352 uM / viability at 72 h, 0.012207 uM / viability at 72 h, 0.0244141 uM / viability at 72 h, 0.0488281 uM / viability at 72 h, 0.0976562 uM / viability at 72 h, 0.195312 uM / viability at 72 h, 0.390625 uM / viability at 72 h, 0.78125 uM / viability at 72 h, 1.5625 uM / viability at 72 h, 3.125 uM / viability at 72 h, 6.25 uM / viability at 72 h, 12.5 uM / viability at 72 h, 25 uM / viability at 72 h, 50 uM: raw data (replicates); for viability at 72 h, 0.000190735 uM: conc 0.000190735 uM; for viability at 72 h, 0.00038147 uM: conc 0.00038147 uM; for viability at 72 h, 0.000762939 uM: conc 0.000762939 uM; for viability at 72 h, 0.00152588 uM: conc 0.00152588 uM; for viability at 72 h, 0.00305176 uM: conc 0.00305176 uM; for viability at 72 h, 0.00610352 uM: conc 0.00610352 uM; for viability at 72 h, 0.012207 uM: conc 0.012207 uM; for viability at 72 h, 0.0244141 uM: conc 0.0244141 uM; for viability at 72 h, 0.0488281 uM: conc 0.0488281 uM; for viability at 72 h, 0.0976562 uM: conc 0.0976562 uM; for viability at 72 h, 0.195312 uM: conc 0.195312 uM; for viability at 72 h, 0.390625 uM: conc 0.390625 uM; for viability at 72 h, 0.78125 uM: conc 0.78125 uM; for viability at 72 h, 1.5625 uM: conc 1.5625 uM; for viability at 72 h, 3.125 uM: conc 3.125 uM; for viability at 72 h, 6.25 uM: conc 6.25 uM; for viability at 72 h, 12.5 uM: conc 12.5 uM; for viability at 72 h, 25 uM: conc 25 uM; for viability at 72 h, 50 uM: conc 50 uM
How it was run: as §1

| Structure (SMILES) | Jurkat viability (%) ([1]; conc 9.53674e-5 uM) | Jurkat viability (%) ([1]; conc 0.000190735 uM) | Jurkat viability (%) ([1]; conc 0.00038147 uM) | Jurkat viability (%) ([1]; conc 0.000762939 uM) | Jurkat viability (%) ([1]; conc 0.00152588 uM) | Jurkat viability (%) ([1]; conc 0.00305176 uM) | Jurkat viability (%) ([1]; conc 0.00610352 uM) | Jurkat viability (%) ([1]; conc 0.012207 uM) | Jurkat viability (%) ([1]; conc 0.0244141 uM) | Jurkat viability (%) ([1]; conc 0.0488281 uM) | Jurkat viability (%) ([1]; conc 0.0976562 uM) | Jurkat viability (%) ([1]; conc 0.195312 uM) | Jurkat viability (%) ([1]; conc 0.390625 uM) | Jurkat viability (%) ([1]; conc 0.78125 uM) | Jurkat viability (%) ([1]; conc 1.5625 uM) | Jurkat viability (%) ([1]; conc 3.125 uM) | Jurkat viability (%) ([1]; conc 6.25 uM) | Jurkat viability (%) ([1]; conc 12.5 uM) | Jurkat viability (%) ([1]; conc 25 uM) | Jurkat viability (%) ([1]; conc 50 uM) | other results |
| --- | --- | --- | --- | --- | --- | --- | --- | --- | --- | --- | --- | --- | --- | --- | --- | --- | --- | --- | --- | --- | --- |
| COC1CC2CCC(C)C(O)(O2)C(=O)C(=O)N2CCCCC2C(=O)OC(C(C)CC2CCC(O)C(OC)C2)CC(=O)C(C)C=C(C)C(O)C(OC)C(=O)C(C)CC(C)C=CCCC=C1C (stereo not drawn) [Compound 15, 19,20-dihidro-rapamycin] | 103.4% and 100.1% | 103.2% | 100.9% and 97.1% | 96.9% | 95.1% and 104.8% | 96.4% and 103.3% | 98.6% and 98.2% | 89.1% and 95.4% | 88.3% and 94.3% | 80.5% and 86.7% | 80.2% and 77.6% | 65.6% and 66.3% | 56.5% and 56.0% | 41.6% and 42.0% | 32.3% and 35.9% | 27.6% and 27.0% | 24.6% and 25.7% | 23.9% and 25.0% | 1.5% and 1.1% | 0.429% and 0.113% and 0.047% | viability at 72 h, 9.53674e-05 uM [2]: 98.3%; viability at 72 h, 0.000190735 uM [2]: 102%; viability at 72 h, 0.00038147 uM [2]: 96.7%; viability at 72 h, 0.000762939 uM [2]: 101%; viability at 72 h, 0.00152588 uM [2]: 97.4%; viability at 72 h, 0.00305176 uM [2]: 94.6%; viability at 72 h, 0.00610352 uM [2]: 96.3%; viability at 72 h, 0.012207 uM [2]: 95.5%; viability at 72 h, 0.0244141 uM [2]: 98.5%; viability at 72 h, 0.0488281 uM [2]: 84.9%; viability at 72 h, 0.0976562 uM [2]: 83.5%; viability at 72 h, 0.195312 uM [2]: 65.5%; viability at 72 h, 0.390625 uM [2]: 61.7%; viability at 72 h, 0.78125 uM [2]: 43.6%; viability at 72 h, 1.5625 uM [2]: 40.7%; viability at 72 h, 3.125 uM [2]: 28.2%; viability at 72 h, 6.25 uM [2]: 26.6%; viability at 72 h, 12.5 uM [2]: 25.9%; viability at 72 h, 25 uM [2]: 1% |
| CO[C@@H]1/C=C/C=C/[C@@H](C)C[C@@H](C)C(=O)C[C@H](O)/C(C)=C/[C@@H](C)C(=O)C[C@@H]([C@H](C)C[C@@H]2CC[C@@H](O)[C@H](OC)C2)OC(=O)[C@@H]2CCCCN2C(=O)C(=O)[C@]2(O)O[C@@H](CC[C@H]2C)C1 [Compound 9] | 97.9% and 103.8% | 101.0% and 98.6% | 107.1% and 103.4% | 103.5% and 104.2% | 104.2% and 102.7% | 97.4% and 96.9% | 101.3% and 103.8% | 97.2% and 97.8% | 92.4% and 98.8% | 88.4% and 81.5% | 82.2% and 81.2% | 57.1% and 58.0% | 50.5% and 48.6% | 40.3% and 41.8% | 36.4% and 39.4% | 29.6% and 29.1% | 28.9% and 29.5% | 26.0% and 28.1% | 26.9% and 28.7% | 17.4% and 19.3% | viability at 72 h, 9.53674e-05 uM [2]: 97.1%; viability at 72 h, 0.000190735 uM [2]: 100%; viability at 72 h, 0.00038147 uM [2]: 106%; viability at 72 h, 0.000762939 uM [2]: 102%; viability at 72 h, 0.00152588 uM [2]: 106%; viability at 72 h, 0.00305176 uM [2]: 97.7%; viability at 72 h, 0.00610352 uM [2]: 105%; viability at 72 h, 0.012207 uM [2]: 92.7%; viability at 72 h, 0.0244141 uM [2]: 93.7%; viability at 72 h, 0.0488281 uM [2]: 86%; viability at 72 h, 0.0976562 uM [2]: 74.9%; viability at 72 h, 0.195312 uM [2]: 60.9%; viability at 72 h, 0.390625 uM [2]: 51.4%; viability at 72 h, 0.78125 uM [2]: 42.4%; viability at 72 h, 1.5625 uM [2]: 36.2%; viability at 72 h, 3.125 uM [2]: 29.7%; viability at 72 h, 6.25 uM [2]: 31.2%; viability at 72 h, 12.5 uM [2]: 29%; viability at 72 h, 25 uM [2]: 27.4%; viability at 72 h, 50 uM [2]: 18.3% |
| COC1CC2CCC(C)C(O)(O2)C(=O)C(=O)N2CCCCC2C(=O)OC(C(C)CC2CCC(O)C(OC)C2)CC(=O)C(C)C=C(C)C(O)CC(=O)C(C)C=C(C)C=CC=CC=C1C (stereo not drawn) [Compound 14] | 99.0% and 99.6% | 96.4% and 106.9% | 106.3% and 110.1% | 94.3% and 106.0% | 101.0% and 106.0% | 97.8% | 106.2% and 106.5% | 99.3% | 108.2% and 105.8% | 103.9% and 107.5% | 96.8% | 93.3% and 90.8% | 89.0% and 89.4% | 77.6% and 70.2% | 62.3% and 57.2% | 49.0% and 51.4% | 45.2% and 40.6% | 39.4% and 37.1% | 31.9% and 26.3% | 1.0% and 0.558% | viability at 72 h, 9.53674e-05 uM [2]: 100%; viability at 72 h, 0.000190735 uM [2]: 99.4%; viability at 72 h, 0.00038147 uM [2]: 100%; viability at 72 h, 0.000762939 uM [2]: 99.9%; viability at 72 h, 0.00152588 uM [2]: 101%; viability at 72 h, 0.00305176 uM [2]: 103%; viability at 72 h, 0.00610352 uM [2]: 98.3%; viability at 72 h, 0.012207 uM [2]: 100%; viability at 72 h, 0.0244141 uM [2]: 102%; viability at 72 h, 0.0488281 uM [2]: 101%; viability at 72 h, 0.0976562 uM [2]: 97.1%; viability at 72 h, 0.195312 uM [2]: 95.7%; viability at 72 h, 0.390625 uM [2]: 94%; viability at 72 h, 0.78125 uM [2]: 78.6%; viability at 72 h, 1.5625 uM [2]: 66.2%; viability at 72 h, 3.125 uM [2]: 45.1%; viability at 72 h, 6.25 uM [2]: 45.6%; viability at 72 h, 12.5 uM [2]: 38.2%; viability at 72 h, 25 uM [2]: 31.3%; viability at 72 h, 50 uM [2]: 0.9% |
| CO[C@H]1C[C@@H]2CC[C@@H](C)[C@@](O)(O2)C(=O)C(=O)N2CCCC[C@H]2C(=O)O[C@H]([C@H](C)C[C@@H]2CC[C@@H](O)[C@H](OC)C2)CC(=O)[C@H](C)/C=C(\C)[C@@H](O)[C@@H](OC)C(=O)[C@H](C)C[C@H](C)/C=C/C=C/C=C/1C [Compound 1, rapamycin, reference compound] | 52.8% and 57.4% | 35.2% and 40.4% | 39.9% and 44.6% | 31.7% | 102.7% and 105.0% | 37.4% | 31.8% and 34.7% | 28.7% and 28.4% | 27.2% and 27.1% | 23.4% | 26.6% and 24.6% | 24.1% and 25.5% | 24.1% and 24.6% | 24.2% | 22.7% and 24.6% | 21.8% and 23.2% | 22.0% and 21.9% | 19.2% | 6.4% and 6.3% | 0.5% and 0.178% and 0.2% | viability at 72 h ([2]; 72 h, read-out: Plateau level of cell viability in the dose-response curve): ~25%; viability at 72 h, 9.53674e-05 uM [2]: 51.5%; viability at 72 h, 0.000190735 uM [2]: 40.1%; viability at 72 h, 0.00038147 uM [2]: 41%; viability at 72 h, 0.000762939 uM [2]: 32.5%; viability at 72 h, 0.00152588 uM [2]: 100%; viability at 72 h, 0.00305176 uM [2]: 41.9%; viability at 72 h, 0.00610352 uM [2]: 30.7%; viability at 72 h, 0.012207 uM [2]: 28.3%; viability at 72 h, 0.0244141 uM [2]: 25.3%; viability at 72 h, 0.0488281 uM [2]: 24.5%; viability at 72 h, 0.0976562 uM [2]: 24%; viability at 72 h, 0.195312 uM [2]: 24.4%; viability at 72 h, 0.390625 uM [2]: 23.8%; viability at 72 h, 0.78125 uM [2]: 23.7%; viability at 72 h, 1.5625 uM [2]: 23.8%; viability at 72 h, 3.125 uM [2]: 23.9%; viability at 72 h, 6.25 uM [2]: 20.6%; viability at 72 h, 12.5 uM [2]: 18.3%; viability at 72 h, 25 uM [2]: 7.7% |
